From BindingDB's records for doi:10.1016/j.bmcl.2016.04.018 (Merck Research Laboratories, 2016)

Assay: Inhibition of human ERG expressed in HEK293 cells assessed as reduction in S35-MK-0499 binding

IC50: 8.34 µM
SMILES: O=C(Nc1cccc(Cl)c1)N1CCOc2ccc(-c3ccncc3)cc2C1
